Test results reported in patent US4525589A, “Isoquinolinesulfonyl derivatives” (Asahi Kasei Kogyo Kabushiki Kaisha, priority 1981, dated 1985).

These compounds were tested on mesenteric artery (assay: Relaxation of mesenteric artery (helical strips contracted with KCl, organ bath)). Conditions: Oryctolagus cuniculus, read-out: Relaxation of Mesenteric Artery ED50.
Set-up: species or system rabbit (home bred, Japanese species)
Method: After a home bred rabbit of a Japanese species weighing about 3 Kg was subjected to bloodletting, resulting in death and then to abdominal incision, the mesenteric artery was taken out, cut into helicoids of 2 mm×25 mm and suspended in a 20 ml organ bath filled with a Krebs-Henseleit solution into which a mixed gas of 95% by volume of O2 and 5% by volume of CO2 was introduced and one end of the artery was connected with an isometric transducer. When a load of 1.5 g was applied to the artery, the contraction and the relaxation of the artery were recorded as a weight on the transducer (a product of Nippon Koden K.K., Japan, "FD Pickup TB-912T"). The relaxation of the mesenteric artery was observed by adding the isoquinolinesulfonyl derivatives and their pharmaceutically acceptable acid addition salts of this invention to the mesenteric artery at the condition of about one half of the maximum contraction with KCl at a KCl concentration of 15~20 mM. When the complete relaxation of the mesenteric artery was designated 100%, the concentration of the isoquinolinesulfonyl derivatives and their pharmaceutically acceptable acid addition salts which brought about a relaxation of 50% is shown in Table 12.

Row | SMILES | EC50 [µM]
1 | CC1CNCCN1S(=O)(=O)c1cccc2cnccc12 (stereo not drawn) [Compound (38), 1-(5-isoquinolinesulfonyl)-2-methylpiperazine] | 5

Same assay, conditions: Oryctolagus cuniculus; concentration for 50% relaxation; KCl 15~20 mM contraction; read-out: Relaxation of Mesenteric Artery ED50

Row | SMILES | EC50 [µM]
2 | NCCCNS(=O)(=O)c1cccc2cnccc12 [Compound (2), N-(3-aminopropyl)-5-isoquinolinesulfonamide] | 7
3 | NCCCCNS(=O)(=O)c1cccc2cnccc12 [Compound (3), N-(4-aminobutyl)-5-isoquinolinesulfonamide] | 11
4 | NCCCCCCNS(=O)(=O)c1cccc2cnccc12 [Compound (4), N-(6-aminohexyl)-5-isoquinolinesulfonamide] | 10
5 | NCCCCCCCCCCNS(=O)(=O)c1cccc2cnccc12 [Compound (5), N-(10-aminodecyl)-5-isoquinolinesulfonamide] | 14
6 | CC(CN)NS(=O)(=O)c1cccc2cnccc12 (stereo not drawn) [Compound (6), N-(2-amino-1-methylethyl)-5-isoquinolinesulfonamide] | 10
7 | CCC(CN)NS(=O)(=O)c1cccc2cnccc12 (stereo not drawn) [Compound (7), N-(1-aminomethylpropyl)-5-isoquinolinesulfonamide] | 21
8 | CCCCC(CN)NS(=O)(=O)c1cccc2cnccc12 (stereo not drawn) [Compound (8), N-(1-aminomethylpentyl)-5-isoquinolinesulfonamide] | 19
9 | CC(N)CNS(=O)(=O)c1cccc2cnccc12 (stereo not drawn) [Compound (9), N-(2-aminopropyl)-5-isoquinolinesulfonamide] | 15
10 | CC(C)C(N)CNS(=O)(=O)c1cccc2cnccc12 (stereo not drawn) [Compound (11), N-(2-amino-3-methylbutyl)-5-isoquinolinesulfonamide] | 28
11 | NCC(NS(=O)(=O)c1cccc2cnccc12)c1ccccc1 (stereo not drawn) [Compound (12), N-(2-amino-1-phenylethyl)-5-isoquinolinesulfonamide] | 18
12 | NC(CNS(=O)(=O)c1cccc2cnccc12)c1ccccc1 (stereo not drawn) [Compound (13), N-(2-amino-2-phenylethyl)-5-isoquinolinesulfonamide] | 25
13 | CNCCNS(=O)(=O)c1cccc2cnccc12 [Compound (14), N-(2-methylaminoethyl)-5-isoquinolinesulfonamide] | 12
14 | CC(C)NCCNS(=O)(=O)c1cccc2cnccc12 [Compound (16), N-(2-isopropylaminoethyl)-5-isoquinolinesulfonamide] | 10
15 | CN(C)CCCNS(=O)(=O)c1cccc2cnccc12 [Compound (17), N-(3-dimethylaminopropyl)-5-isoquinolinesulfonamide] | 10
16 | CCN(CC)CCCNS(=O)(=O)c1cccc2cnccc12 [Compound (18), N-(3-diethylaminopropyl)-5-isoquinolinesulfonamide] | 30
17 | CCCCN(CCCC)CCCNS(=O)(=O)c1cccc2cnccc12 [Compound (19), N-(3-di-n-butylaminopropyl)-5-isoquinolinesulfonamide] | 17
18 | O=S(=O)(NCCCN1CCCCC1)c1cccc2cnccc12 [Compound (20), N-(3-piperidinopropyl)-5-isoquinolinesulfonamide] | 42
19 | O=S(=O)(NCCCN1CCOCC1)c1cccc2cnccc12 [Compound (21), N-(3-morpholinopropyl)-5-isoquinolinesulfonamide] | 50
20 | CN(CCCNS(=O)(=O)c1cccc2cnccc12)C1CCCCC1 [Compound (22), N-[3-(N-methyl-N-cyclohexylamino)propyl]-5-isoquinolinesulfonamide] | 42
21 | CN(CCCNS(=O)(=O)c1cccc2cnccc12)c1ccccc1 [Compound (23), N-[3-(N-methyl-N-phenylamino)propyl]-5-isoquinolinesulfonamide] | 4
22 | CNS(=O)(=O)c1cccc2cnccc12 [Compound (25), N-methyl-5-isoquinolinesulfonamide] | 13
23 | O=S(=O)(c1cccc2cnccc12)N1CCCC1 [Compound (33), 1-(5-isoquinolinesulfonyl)pyrrolidine] | 11
24 | CN1CCN(S(=O)(=O)c2cccc3cnccc23)CC1 [Compound (36), 1-(5-isoquinolinesulfonyl)-4-methylpiperazine] | 7.7
25 | CC1CN(S(=O)(=O)c2cccc3cnccc23)CCN1 (stereo not drawn) [Compound (37), 1-(5-isoquinolinesulfonyl)-3-methylpiperazine] | 4
26 | CC1CN(S(=O)(=O)c2cccc3cnccc23)C(C)CN1 (stereo not drawn) [Compound (40), 1-(5-isoquinolinesulfonyl)-2,5-dimethylpiperazine] | 0.6
27 | CC(C)CC1CN(S(=O)(=O)c2cccc3cnccc23)CCN1 (stereo not drawn) [Compound (46), 1-(5-isoquinolinesulfonyl)-3-isobutylpiperazine] | 6.5
28 | CCCCCCN1CCN(S(=O)(=O)c2cccc3cnccc23)CC1 [Compound (51), 1-(5-isoquinolinesulfonyl)-4-hexylpiperazine] | 19
29 | O=S(=O)(c1cccc2cnccc12)N1CCN(CC=Cc2ccccc2)CC1 [Compound (59), 1-(5-isoquinolinesulfonyl)-4-cinnamylpiperazine] | 6.8

Next, values leading:

Row | EC50 [µM] | SMILES
30 | 17 | CN(CCCNS(=O)(=O)c1cccc2cnccc12)Cc1ccccc1 [Compound (24), N-[3-(N-methyl-N-benzylamino)propyl]-5-isoquinolinesulfonamide]
31 | 8.8 | CCNS(=O)(=O)c1cccc2cnccc12 [Compound (26), N-ethyl-5-isoquinolinesulfonamide]
32 | 21 | CCCCNS(=O)(=O)c1cccc2cnccc12 [Compound (27), N-n-Butyl-5-isoquinolinesulfonamide]
33 | 19 | CC(C)CNS(=O)(=O)c1cccc2cnccc12 [Compound (28), N-isobutyl-5-isoquinolinesulfonamide]
34 | 13 | CN(C)S(=O)(=O)c1cccc2cnccc12 [Compound (29), N,N-dimethyl-5-isoquinolinesulfonamide]
35 | 8.9 | CCN(CC)S(=O)(=O)c1cccc2cnccc12 [Compound (30), N,N-diethyl-5-isoquinolinesulfonamide]
36 | 28 | CCCCN(CCCC)S(=O)(=O)c1cccc2cnccc12 [Compound (31), N,N-di-n-butyl-5-isoquinolinesulfonamide]
37 | 16 | O=S(=O)(c1cccc2cnccc12)N1CCCCC1 [Compound (32), 1-(5-isoquinolinesulfonyl)piperidine]
38 | 10 | O=S(=O)(c1cccc2cnccc12)N1CCOCC1 [Compound (34), 1-(5-isoquinolinesulfonyl)morpholine]
39 | 9.5 | CC1CN(S(=O)(=O)c2cccc3cnccc23)CC(C)N1 (stereo not drawn) [Compound (39), 1-(5-isoquinolinesulfonyl)-3,5-dimethylpiperazine]
40 | 1.5 | CC1NCCN(S(=O)(=O)c2cccc3cnccc23)C1C (stereo not drawn) [Compound (41), 1-(5-isoquinolinesulfonyl)-2,3-dimethylpiperazine]
41 | 18 | CCN1CCN(S(=O)(=O)c2cccc3cnccc23)CC1 [Compound (42), 1-(5-isoquinolinesulfonyl)-4-ethylpiperazine]
42 | 6.1 | CCC1CN(S(=O)(=O)c2cccc3cnccc23)CCN1 (stereo not drawn) [Compound (43), 1-(5-isoquinolinesulfonyl)-3-ethylpiperazine]
43 | 8.6 | CCCN1CCN(S(=O)(=O)c2cccc3cnccc23)CC1 [Compound (44), 1-(5-isoquinolinesulfonyl)-4-n-propylpiperazine]
44 | 7.5 | CC(C)C1CN(S(=O)(=O)c2cccc3cnccc23)CCN1 (stereo not drawn) [Compound (45), 1-(5-isoquinolinesulfonyl)-3-isopropylpiperazine]
45 | 24 | CC(C)CN1CCN(S(=O)(=O)c2cccc3cnccc23)CC1 [Compound (47), 1-(5-isoquinolinesulfonyl)-4-isobutylpiperazine]
46 | 1.8 | CCC1CN(S(=O)(=O)c2cccc3cnccc23)C(CC)CN1 (stereo not drawn) [Compound (48), 1-(5-isoquinolinesulfonyl)-2,5-diethylpiperazine]
47 | 10 | CC(C)CC1CN(S(=O)(=O)c2cccc3cnccc23)C(C)CN1 (stereo not drawn) [Compound (49), 1-(5-isoquinolinesulfonyl)-2-methyl-5-isobutylpiperazine]
48 | 16 | CC1CNC(Cc2ccccc2)CN1S(=O)(=O)c1cccc2cnccc12 (stereo not drawn) [Compound (50), 1-(5-isoquinolinesulfonyl)-2-methyl-5-benzylpiperazine]
49 | 7 | O=S(=O)(c1cccc2cnccc12)N1CCNC(c2ccccc2)C1 (stereo not drawn) [Compound (53), 1-(5-isoquinolinesulfonyl)-3-phenylpiperazine]
50 | 11 | O=S(=O)(c1cccc2cnccc12)N1CCNC(Cc2ccccc2)C1 (stereo not drawn) [Compound (54), 1-(5-isoquinolinesulfonyl)-3-benzylpiperazine]
51 | 9 | O=S(=O)(c1cccc2cnccc12)N1CCN(c2ccccc2)CC1 [Compound (55), 1-(5-isoquinolinesulfonyl)-4-phenylpiperazine]
52 | 23 | O=S(=O)(c1cccc2cnccc12)N1CCN(Cc2ccccc2)CC1 [Compound (56), 1-(5-isoquinolinesulfonyl)-4-benzylpiperazine]
53 | 12 | O=S(=O)(c1cccc2cnccc12)N1CCN(CCc2ccccc2)CC1 [Compound (57), 1-(5-isoquinolinesulfonyl)-4-phenethylpiperazine]
54 | 40 | O=C(c1ccccc1)N1CCN(S(=O)(=O)c2cccc3cnccc23)CC1 [Compound (58), 1-(5-isoquinolinesulfonyl)-4-benzoylpiperazine]
